Test results published in ChEMBL document CHEMBL5365511, “Novel Compounds as TEAD Inhibitors for Treating Cancer” (ACS Med Chem Lett, 2023).

Experiments:
[1] = molecular target: Transcriptional enhancer factor TEF-4 (Homo sapiens, UniProt Q15562); experiment: Displacement of biotinylated lipid pocket probes from His-tagged TEAD2 (unknown origin) preincubated for 4 hrs followed by lipid pocket probe addition and measured after 60 mins by TR-FRET assay
[2] = molecular target: Transcriptional enhancer factor TEF-3 (Homo sapiens, UniProt Q15561); experiment: Displacement of biotinylated lipid pocket probes from His-tagged TEAD4 (unknown origin) preincubated for 4 hrs followed by lipid pocket probe addition and measured after 60 mins by TR-FRET assay
Sequence of Transcriptional enhancer factor TEF-3 (Q15561 whole entry): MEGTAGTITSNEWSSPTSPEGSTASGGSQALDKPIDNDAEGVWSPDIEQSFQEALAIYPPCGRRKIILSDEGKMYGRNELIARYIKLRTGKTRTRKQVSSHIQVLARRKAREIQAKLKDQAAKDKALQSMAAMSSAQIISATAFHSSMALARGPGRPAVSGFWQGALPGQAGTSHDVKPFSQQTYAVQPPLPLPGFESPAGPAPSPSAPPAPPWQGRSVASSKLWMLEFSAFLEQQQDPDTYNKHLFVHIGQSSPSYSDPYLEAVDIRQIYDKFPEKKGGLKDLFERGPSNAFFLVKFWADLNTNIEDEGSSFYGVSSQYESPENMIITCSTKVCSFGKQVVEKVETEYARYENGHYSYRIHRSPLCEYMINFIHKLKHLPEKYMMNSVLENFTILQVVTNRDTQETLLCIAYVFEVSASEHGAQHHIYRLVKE

[3] = molecular target: Transcriptional enhancer factor TEF-5 (Homo sapiens, UniProt Q99594); experiment: Displacement of biotinylated lipid pocket probes from His-tagged TEAD3 (unknown origin) preincubated for 4 hrs followed by lipid pocket probe addition and measured after 60 mins by TR-FRET assay
Sequence of Transcriptional enhancer factor TEF-5 (Q99594 whole entry): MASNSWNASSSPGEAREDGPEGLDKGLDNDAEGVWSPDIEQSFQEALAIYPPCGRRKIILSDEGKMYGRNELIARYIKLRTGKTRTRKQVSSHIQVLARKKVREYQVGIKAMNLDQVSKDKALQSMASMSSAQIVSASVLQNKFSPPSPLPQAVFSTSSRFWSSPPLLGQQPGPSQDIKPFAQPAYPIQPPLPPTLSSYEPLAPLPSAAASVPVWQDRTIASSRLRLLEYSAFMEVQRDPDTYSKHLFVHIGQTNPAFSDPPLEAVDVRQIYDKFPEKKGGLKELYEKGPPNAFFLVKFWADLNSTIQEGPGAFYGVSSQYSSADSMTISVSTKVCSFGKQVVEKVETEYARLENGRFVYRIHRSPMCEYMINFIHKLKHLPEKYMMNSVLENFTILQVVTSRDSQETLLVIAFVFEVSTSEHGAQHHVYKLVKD

[4] = molecular target: Transcriptional enhancer factor TEF-1 (Homo sapiens, UniProt P28347); experiment: Displacement of biotinylated lipid pocket probes from His-tagged TEAD1 (unknown origin) preincubated for 4 hrs followed by lipid pocket probe addition and measured after 60 mins by TR-FRET assay
Sequence of Transcriptional enhancer factor TEF-1 (P28347 whole entry): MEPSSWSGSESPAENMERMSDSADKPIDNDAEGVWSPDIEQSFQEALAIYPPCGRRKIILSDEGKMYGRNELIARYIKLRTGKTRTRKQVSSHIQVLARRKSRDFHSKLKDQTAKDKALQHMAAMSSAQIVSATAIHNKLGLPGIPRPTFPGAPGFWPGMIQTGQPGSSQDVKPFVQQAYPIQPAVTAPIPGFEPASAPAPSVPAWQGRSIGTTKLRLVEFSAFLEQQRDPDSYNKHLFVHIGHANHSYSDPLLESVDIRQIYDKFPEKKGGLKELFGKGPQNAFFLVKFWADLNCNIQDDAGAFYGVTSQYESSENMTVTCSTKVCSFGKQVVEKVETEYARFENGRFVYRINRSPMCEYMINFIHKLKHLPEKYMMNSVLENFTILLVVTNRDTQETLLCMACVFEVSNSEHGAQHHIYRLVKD

Sequence of Transcriptional enhancer factor TEF-4 (Q15562 whole entry): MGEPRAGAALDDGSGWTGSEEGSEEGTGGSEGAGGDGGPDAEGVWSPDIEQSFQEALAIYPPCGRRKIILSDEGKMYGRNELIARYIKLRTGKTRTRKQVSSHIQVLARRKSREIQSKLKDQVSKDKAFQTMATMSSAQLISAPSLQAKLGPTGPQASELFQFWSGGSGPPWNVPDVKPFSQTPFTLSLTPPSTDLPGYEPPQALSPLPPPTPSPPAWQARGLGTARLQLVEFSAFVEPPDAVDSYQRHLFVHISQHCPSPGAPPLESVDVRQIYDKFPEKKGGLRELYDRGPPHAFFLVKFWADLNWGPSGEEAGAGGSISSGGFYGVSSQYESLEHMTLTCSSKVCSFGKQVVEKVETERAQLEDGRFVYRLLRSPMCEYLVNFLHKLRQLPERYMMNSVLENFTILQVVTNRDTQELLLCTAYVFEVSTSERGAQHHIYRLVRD

Row | Compound | IC50 [1] [nM] | IC50 [2] [nM] | IC50 [3] [nM] | IC50 [4] [nM]
1 | Cn1cnc2c(-c3ccc(OC(F)(F)F)cc3)nc(C3CN(C(=O)C4=CCC4)C3)nc21 | 4 | 2 |  | 
2 | C=CC(=O)N(C)Cc1cc(-c2ccc(OC(F)(F)F)cc2)c2c(c1CO)CCO2 | 6 | 3 | 7 | 4
3 | C=CC(=O)NCc1cc(-c2ccc(OC(F)(F)F)cc2)c2ncn(C)c2c1C#CCO |  | 3 |  | 6
4 | C=CC(=O)N1CC(c2nc(-c3ccc(OC(F)(F)F)cc3)c3ncsc3n2)C1 | 4 | 2 | 3 | 3
